The source of these data is BindingDB's records for doi:10.1016/s0960-894x(02)00131-2 (Shire Biochem, 2002).

pKi: −log10 of the molar value.

The test addresses Prothrombin/thrombin (Homo sapiens) (UniProt P00734). Briefly: Inhibition of amidolytic activity of thrombin.
For orientation: pKi means the Ki on a negative log10 scale, so that one unit is a factor of ten. As to `N=C(N)c1ccc(CNC(=O)[C@@H]2CC[C@H]3CN(S(=O)(=O)CC(c4ccccc4)c4ccccc4)CC(=O)N32)cc1` [(6S,8aS)-2-(2,2-Diphenyl-ethanesulfonyl)-4-oxo-octahydro-pyrrolo[1,2-a]pyrazine-6-carboxylic acid 4-carbamimidoyl-benzylamide], the negative-log Ki (pKi) is 9.00. The molecule `N=C(N)N1CCC(CNC(=O)[C@@H]2CC[C@H]3CN(S(=O)(=O)CC(c4ccccc4)c4ccccc4)CC(=O)N32)CC1` [(6S,8aS)-2-(2,2-Diphenyl-ethanesulfonyl)-4-oxo-octahydro-pyrrolo[1,2-a]pyrazine-6-carboxylic acid (1-carbamimidoyl-piperidin-4-ylmethyl)-amide] gave a pKi of 8.10. `N[C@H]1CC[C@H](CNC(=O)[C@@H]2CC[C@H]3CN(S(=O)(=O)CC(c4ccccc4)c4ccccc4)CC(=O)N32)CC1` [(6S,8aS)-2-(2,2-Diphenyl-ethanesulfonyl)-4-oxo-octahydro-pyrrolo[1,2-a]pyrazine-6-carboxylic acid (4-amino-cyclohexylmethyl)-amide] gave a pKi of 8.30.

For the molecule `Cc1nc(N)ccc1CNC(=O)[C@@H]1CC[C@H]2CN(S(=O)(=O)CC(c3ccccc3)c3ccccc3)CC(=O)N21` [(6S,8aS)-2-(2,2-Diphenyl-ethanesulfonyl)-4-oxo-octahydro-pyrrolo[1,2-a]pyrazine-6-carboxylic acid (6-amino-2-methyl-pyridin-3-ylmethyl)-amide], the pKi was 7.32. `Nc1ccc(CNC(=O)[C@@H]2CC[C@H]3CN(S(=O)(=O)CC(c4ccccc4)c4ccccc4)CC(=O)N32)cn1` [(6S,8aS)-2-(2,2-Diphenyl-ethanesulfonyl)-4-oxo-octahydro-pyrrolo[1,2-a]pyrazine-6-carboxylic acid (6-amino-pyridin-3-ylmethyl)-amide] gave a negative-log Ki (pKi) of 7.46.

Take `N=C(NO)N1CCC(CNC(=O)[C@@H]2CC[C@H]3CN(S(=O)(=O)CC(c4ccccc4)c4ccccc4)CC(=O)N32)CC1` [(6S,8aS)-2-(2,2-Diphenyl-ethanesulfonyl)-4-oxo-octahydro-pyrrolo[1,2-a]pyrazine-6-carboxylic acid [1-(N-hydroxycarbamimidoyl)-piperidin-4-ylmethyl]-amide]: the pKi is 8.70. Then `N=C(NO)N1CCC(CNC(=O)[C@@H]2CC[C@H]3CN(C(=O)CC(c4ccccc4)c4ccccc4)CC(=O)N32)CC1` [(6S,8aS)-2-(3,3-Diphenyl-propionyl)-4-oxo-octahydro-pyrrolo[1,2-a]pyrazine-6-carboxylic acid [1-(N-hydroxycarbamimidoyl)-piperidin-4-ylmethyl]-amide], with 7.60.

The molecule `Cc1cc(C(=N)N)ccc1CNC(=O)[C@@H]1CC[C@H]2CN(S(=O)(=O)C(c3ccccc3)c3ccccc3)CC(=O)N21` [(6S,8aS)-2-(Diphenyl-methanesulfonyl)-4-oxo-octahydro-pyrrolo[1,2-a]pyrazine-6-carboxylic acid 4-carbamimidoyl-2-methyl-benzylamide] showed a pKi of 8.70.

`N=C(N)c1ccc(CNC(=O)[C@@H]2CC[C@H]3CN(S(=O)(=O)C(c4ccccc4)c4ccccc4)CC(=O)N32)cc1` [(6S,8aS)-2-(Diphenyl-methanesulfonyl)-4-oxo-octahydro-pyrrolo[1,2-a]pyrazine-6-carboxylic acid 4-carbamimidoyl-benzylamide] gave a negative logarithm of the Ki (pKi) of 9.00. Consider `N=C(N)N1CCC(CNC(=O)[C@@H]2CC[C@H]3CN(S(=O)(=O)C(c4ccccc4)c4ccccc4)CC(=O)N32)CC1` [(6S,8aS)-2-(Diphenyl-methanesulfonyl)-4-oxo-octahydro-pyrrolo[1,2-a]pyrazine-6-carboxylic acid (1-carbamimidoyl-piperidin-4-ylmethyl)-amide], for which the pKi is 8.05. For the molecule `O=C(NCc1ccc2nc[nH]c2c1)[C@@H]1CC[C@H]2CN(S(=O)(=O)C(c3ccccc3)c3ccccc3)CC(=O)N21` [(6S,8aS)-2-(Diphenyl-methanesulfonyl)-4-oxo-octahydro-pyrrolo[1,2-a]pyrazine-6-carboxylic acid (1H-benzoimidazol-5-ylmethyl)-amide], the pKi was 7.12.

The molecule `N[C@H]1CC[C@H](CNC(=O)[C@@H]2CC[C@H]3CN(S(=O)(=O)C(c4ccccc4)c4ccccc4)CC(=O)N32)CC1` [(6S,8aS)-2-(Diphenyl-methanesulfonyl)-4-oxo-octahydro-pyrrolo[1,2-a]pyrazine-6-carboxylic acid (4-amino-cyclohexylmethyl)-amide] had a pKi of 8.30.

The molecule `N=C(N)[C@H]1CC[C@H](CNC(=O)[C@@H]2CC[C@H]3CN(S(=O)(=O)C(c4ccccc4)c4ccccc4)CC(=O)N32)CC1` [(6S,8aS)-2-(Diphenyl-methanesulfonyl)-4-oxo-octahydro-pyrrolo[1,2-a]pyrazine-6-carboxylic acid (4-carbamimidoyl-cyclohexylmethyl)-amide] had a negative logarithm of the Ki (pKi) of 8.70. In turn, `N=C(N)c1ccc2c(c1)CCC2NC(=O)[C@@H]1CC[C@H]2CN(S(=O)(=O)C(c3ccccc3)c3ccccc3)CC(=O)N21` (stereo partly drawn) [(6S,8aS)-2-(Diphenyl-methanesulfonyl)-4-oxo-octahydro-pyrrolo[1,2-a]pyrazine-6-carboxylic acid (5-carbamimidoyl-indan-1-yl)-amide] had a pKi of 7.12. For the molecule `Cc1nc(N)ccc1CNC(=O)[C@@H]1CC[C@H]2CN(S(=O)(=O)C(c3ccccc3)c3ccccc3)CC(=O)N21` [(6S,8aS)-2-(Diphenyl-methanesulfonyl)-4-oxo-octahydro-pyrrolo[1,2-a]pyrazine-6-carboxylic acid (6-amino-2-methyl-pyridin-3-ylmethyl)-amide], the pKi is 8.00. Next, `N=C(NO)N1CCC(CNC(=O)[C@@H]2CC[C@H]3CN(S(=O)(=O)C(c4ccccc4)c4ccccc4)CC(=O)N32)CC1` [(6S,8aS)-2-(Diphenyl-methanesulfonyl)-4-oxo-octahydro-pyrrolo[1,2-a]pyrazine-6-carboxylic acid [1-(N-hydroxycarbamimidoyl)-piperidin-4-ylmethyl]-amide]: 8.70; `Nc1ncc(CCNC(=O)[C@@H]2CC[C@H]3CN(S(=O)(=O)C(c4ccccc4)c4ccccc4)CC(=O)N32)[nH]1` [(6S,8aS)-2-(Diphenyl-methanesulfonyl)-4-oxo-octahydro-pyrrolo[1,2-a]pyrazine-6-carboxylic acid [2-(2-amino-1H-imidazol-4-yl)-ethyl]-amide]: 6.87; `N=C(NO)N1CCC(CNC(=O)[C@@H]2CC[C@H]3CN(S(=O)(=O)CCc4ccccc4)CC(=O)N32)CC1` [(6S,8aS)-4-Oxo-2-(2-phenyl-ethanesulfonyl)-octahydro-pyrrolo[1,2-a]pyrazine-6-carboxylic acid [1-(N-hydroxycarbamimidoyl)-piperidin-4-ylmethyl]-amide]: 7.85. `N=C(N)N1CCC(CNC(=O)[C@@H]2CC[C@H]3CN(C(=O)CCc4ccccc4)CC(=O)N32)CC1` [(6S,8aS)-4-Oxo-2-(3-phenyl-propionyl)-octahydro-pyrrolo[1,2-a]pyrazine-6-carboxylic acid (1-carbamimidoyl-piperidin-4-ylmethyl)-amide] gave a pKi of 6.74.
